According to ChEMBL document CHEMBL5352400, “Design, synthesis and biological evaluation of novel coumarin derivatives as multifunctional ligands for the treatment of Alzheimer's disease” (Eur J Med Chem, 2022):

Tests used:
Acetylcholinesterase = Acetylcholinesterase (Electrophorus electricus, UniProt O42275); test: Inhibition of electric eel AChE using acetylthiocholine iodine as substrate preincubated for 20 mins followed by substrate addition and measured after 20 mins by DTNB reagent based Ellman's method
Sequence of Acetylcholinesterase (O42275 whole entry): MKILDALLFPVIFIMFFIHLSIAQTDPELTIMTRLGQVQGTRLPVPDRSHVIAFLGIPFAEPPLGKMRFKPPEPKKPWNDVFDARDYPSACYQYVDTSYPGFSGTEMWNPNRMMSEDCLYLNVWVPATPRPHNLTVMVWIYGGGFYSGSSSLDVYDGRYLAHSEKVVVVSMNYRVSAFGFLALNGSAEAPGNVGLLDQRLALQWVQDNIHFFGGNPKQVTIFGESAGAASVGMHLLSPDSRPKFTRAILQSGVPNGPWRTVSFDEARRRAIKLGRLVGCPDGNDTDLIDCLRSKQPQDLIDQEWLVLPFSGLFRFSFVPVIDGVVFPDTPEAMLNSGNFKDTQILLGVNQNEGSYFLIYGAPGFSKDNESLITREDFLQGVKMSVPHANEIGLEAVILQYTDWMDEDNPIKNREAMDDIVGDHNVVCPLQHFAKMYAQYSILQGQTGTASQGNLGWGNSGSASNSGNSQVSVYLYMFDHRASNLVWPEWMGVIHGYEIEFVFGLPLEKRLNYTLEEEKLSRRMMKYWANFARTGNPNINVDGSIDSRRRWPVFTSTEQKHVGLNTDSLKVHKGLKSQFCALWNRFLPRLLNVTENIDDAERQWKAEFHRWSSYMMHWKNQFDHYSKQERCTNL

[1] = Cytotoxicity in human SH-SY5Y cells assessed as reduction in cell viability incubated for 48 hrs by MTT assay; format: toxicity, cell-based
Beta-secretase 1 [2] = target: T1, Beta-secretase 1 (Homo sapiens, UniProt P56817); test: Inhibition of recombinant human BACE1 using fluorogenic polypeptide Mca-SEVNLDAEFRK(Dpn)RRNH2 as substrate at 10 uM incubated for 60 mins by FRET assay relative to control
T1 sequence (P56817 whole entry): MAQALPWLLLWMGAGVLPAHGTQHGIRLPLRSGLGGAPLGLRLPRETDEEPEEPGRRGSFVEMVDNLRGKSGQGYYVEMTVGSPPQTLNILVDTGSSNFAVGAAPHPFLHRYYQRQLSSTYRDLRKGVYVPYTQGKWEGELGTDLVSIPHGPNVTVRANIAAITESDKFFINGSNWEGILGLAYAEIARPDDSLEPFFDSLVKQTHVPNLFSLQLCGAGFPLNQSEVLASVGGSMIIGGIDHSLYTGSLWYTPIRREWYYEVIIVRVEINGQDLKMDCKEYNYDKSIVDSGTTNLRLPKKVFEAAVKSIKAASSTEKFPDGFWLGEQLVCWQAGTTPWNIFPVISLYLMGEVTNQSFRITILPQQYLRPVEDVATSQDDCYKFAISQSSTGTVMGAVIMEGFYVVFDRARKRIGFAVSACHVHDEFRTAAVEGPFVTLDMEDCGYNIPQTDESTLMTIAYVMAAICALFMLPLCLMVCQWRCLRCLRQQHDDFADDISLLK

[3] = Cytotoxicity in human HepG2 cells assessed as reduction in cell viability incubated for 48 hrs by MTT assay; format: toxicity, cell-based
Cholinesterase = Cholinesterase (Equus caballus, UniProt P81908); test: Inhibition of equine serum BuChE using butylthiocholine iodine as substrate preincubated for 20 mins followed by substrate addition and measured after 20 mins by DTNB reagent based Ellman's method
Sequence of Cholinesterase (P81908 whole entry): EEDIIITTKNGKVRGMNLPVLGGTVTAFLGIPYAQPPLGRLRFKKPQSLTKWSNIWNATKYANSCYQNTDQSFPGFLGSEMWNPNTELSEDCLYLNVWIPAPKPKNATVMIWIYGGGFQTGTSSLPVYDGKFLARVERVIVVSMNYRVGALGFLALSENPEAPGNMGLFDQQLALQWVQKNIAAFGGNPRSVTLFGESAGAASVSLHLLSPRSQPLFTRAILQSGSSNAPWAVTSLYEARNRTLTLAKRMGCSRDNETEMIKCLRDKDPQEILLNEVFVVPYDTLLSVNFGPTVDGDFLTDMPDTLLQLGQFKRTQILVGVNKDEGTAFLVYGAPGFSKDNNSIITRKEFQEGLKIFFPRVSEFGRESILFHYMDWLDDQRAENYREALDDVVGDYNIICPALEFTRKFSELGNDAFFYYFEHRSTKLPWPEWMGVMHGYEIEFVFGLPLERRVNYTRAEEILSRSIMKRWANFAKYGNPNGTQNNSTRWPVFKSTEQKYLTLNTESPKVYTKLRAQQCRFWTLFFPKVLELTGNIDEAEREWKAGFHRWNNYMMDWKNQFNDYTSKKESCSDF

[4] = Selectivity index, ratio of IC50 for inhibition of equine serum BuChE to IC50 for inhibition of electric eel AChE
[5] = Cytotoxicity in human HL7702 cells assessed as reduction in cell viability incubated for 48 hrs by MTT assay; format: toxicity, cell-based; conditions: HL7702 (L02) cells
[6] = Effective permeability of the compound in PBS buffer at pH 7.4/EtOH buffer (7:3) incubated for 20 hrs by UV-plate spectroscopy based PAMPA-BBB assay
Beta-secretase 1 [7] = target: T1, Beta-secretase 1; test: Inhibition of recombinant human BACE1 using fluorogenic polypeptide Mca-SEVNLDAEFRK(Dpn)RRNH2 as substrate incubated for 60 mins by FRET assay
[8] = target: Glycogen synthase kinase-3 beta (Homo sapiens, UniProt P49841); test: Inhibition of GSK-3beta (unknown origin)
Sequence of Glycogen synthase kinase-3 beta (P49841 whole entry): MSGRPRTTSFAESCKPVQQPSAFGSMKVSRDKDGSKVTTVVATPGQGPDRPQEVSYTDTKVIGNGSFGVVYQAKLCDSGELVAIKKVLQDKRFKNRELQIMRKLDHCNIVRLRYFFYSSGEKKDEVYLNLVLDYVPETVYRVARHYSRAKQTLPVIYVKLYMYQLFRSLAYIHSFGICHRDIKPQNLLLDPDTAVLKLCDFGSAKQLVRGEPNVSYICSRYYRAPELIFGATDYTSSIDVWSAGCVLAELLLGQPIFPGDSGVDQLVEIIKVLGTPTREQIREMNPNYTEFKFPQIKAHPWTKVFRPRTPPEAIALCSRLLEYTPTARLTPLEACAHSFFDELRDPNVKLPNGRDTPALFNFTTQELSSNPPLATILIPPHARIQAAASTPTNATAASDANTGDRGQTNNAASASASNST

Beta-secretase 1 [9] = target: T1, Beta-secretase 1; test: Inhibition of BACE1 (unknown origin)

| SMILES | IC50 (Acetylcholinesterase) [µM] | IC50 at 48 h [1] [µM] | inhibition (Beta-secretase 1 [2]) [%] | IC50 at 48 h [3] [µM] | IC50 (Cholinesterase) [µM] | Ratio IC50 [4] | IC50 at 48 h [5] [µM] | Papp at 20 h [6] [×10⁻⁶ cm/s] | IC50 (Beta-secretase 1 [7]) [µM] | IC50 [8] [µM] | IC50 (Beta-secretase 1 [9]) [µM] |
| --- | --- | --- | --- | --- | --- | --- | --- | --- | --- | --- | --- |
| COc1ccc(CNC2CCN(CCCOc3cc(=O)oc4cc(-c5cccnc5)ccc34)CC2)cc1 | 11.6 | 6.81 | 82 | 9.12 | 11.3 | 0.982 | – | – | – | – | – |
| O=c1cc(OCCCN2CCC(NCc3ccccc3)CC2)c2ccc(Br)cc2o1 | 22.7 | > 20 | 72.8 | 11.8 | 35.7 | 1.58 | – | – | – | – | – |
| O=C(Nc1cc(-c2ccc3c(OCCCNC4CCN(Cc5ccccc5)CC4)cc(=O)oc3c2)ccn1)C1CC1 | 6.75 | 3.41 | 30.9 | 3.65 | > 50 | > 7.41 | – | – | – | – | – |
| Cc1ccc(CNC2CCN(CCCOc3cc(=O)oc4cc(-c5cccnc5)ccc34)CC2)cc1 | 14.2 | 16.5 | 36.4 | 9.93 | 16.3 | 1.15 | – | – | – | – | – |
| Cc1cccc(CNC2CCN(CCCOc3cc(=O)oc4cc(-c5cccnc5)ccc34)CC2)c1 | 16.6 | 12 | – | 13.1 | 18.6 | 1.12 | – | – | – | – | – |
| O=c1cc(OCCCN2CCC(NCc3ccsc3)CC2)c2ccc(-c3cccnc3)cc2o1 | 3.29 | 14.2 | 64.7 | 14.1 | 9.98 | 3.03 | 36.2 | 15.4 | – | – | – |
| O=c1cc(OCCCN2CCC(NCc3ccc(F)cc3)CC2)c2ccc(-c3cccnc3)cc2o1 | 25.9 | 10.9 | 22.1 | > 20 | > 50 | > 1.93 | – | – | – | – | – |
| O=c1cc(OCCCN2CCC(NCc3ccccc3)CC2)c2ccc(-c3cccnc3)cc2o1 | 9.31 | > 20 | 51.4 | > 20 | 21.4 | 2.3 | – | – | – | – | – |
| O=c1cc(OCCCNC2CCN(Cc3ccccc3)CC2)c2ccc(-c3ccnc(F)c3)cc2o1 | 2.14 | 5.56 | – | 5.95 | > 50 | > 23.4 | – | – | – | – | – |
| O=c1cc(OCCCNC2CCN(Cc3ccccc3)CC2)c2ccc(-c3ccc(F)nc3)cc2o1 | 1.72 | 5.75 | – | 3.93 | > 50 | > 29 | – | – | – | – | – |
| C[C@@]1(c2cc(-c3cncnc3)c(F)cc2F)CCSC(N)=N1 | – | – | 80.3 | – | – | – | – | – | – | – | – |
| CC(C)=CC(O)C/C(C)=C/COc1c2ccoc2cc2oc(=O)ccc12 (stereo not given) [NOTOPTEROL] | > 100 | > 20 | 10.2 | > 20 | > 100 | – | – | – | 26 | 1 | 26 |
| O=c1cc(OCCCN2CCC(NCc3cccc(F)c3)CC2)c2ccc(-c3cccnc3)cc2o1 | 10.1 | 14.4 | 34 | 14.6 | 28.4 | 2.82 | – | – | – | – | – |
| O=c1cc(OCCCN2CCC(CNCc3ccccc3F)CC2)c2ccc(-c3cccnc3)cc2o1 | 10.7 | 6.49 | 67.2 | 4.26 | 31.1 | 2.91 | – | – | – | – | – |
| O=C(Nc1cc(-c2ccc3c(OCCCNC4CCN(Cc5ccccc5)CC4)cc(=O)oc3c2)ccn1)c1ccccc1 | 13.5 | 1.5 | – | 1.91 | > 50 | > 3.7 | – | – | – | – | – |
| O=c1cc(OCCCN2CCOCC2)c2ccc(-c3cccnc3)cc2o1 | 15.7 | > 20 | – | > 20 | > 50 | > 3.19 | – | – | – | – | – |
